Values quoted from earlier work in US20260124292A1, “MU[…] INFLUENZA VACCINE” (priority 2022, published 2026).

Tested on: influenza A virus-specific CTL
Conditions: according to Boon et al. 2006

Row | Sequence | Immunodominance
1 | CTELKLSDY [SEQ ID NO: 4] | (Intermediate
2 | ELRSRYWAI (listed as Alphainfluenzavirus influenzae) [SEQ ID NO: 2] | (Intermediate
3 | RRSGAAGAAVK (listed as Alphainfluenzavirus influenzae) [SEQ ID NO: 16] | (Highly
4 | SRYWAIRTR (listed as Alphainfluenzavirus influenzae) [SEQ ID NO: 3] | (Highly
